ChEMBL document CHEMBL5143560, “Rational drug design to explore the structure-activity relationship (SAR) of TRK inhibitors with 2,4-diaminopyrimidine scaffold” (Eur J Med Chem, 2022)

How the values were obtained:
[1] = Metabolic stability in human liver microsomes assessed as parent compound remaining measured at 60 min in presence of NADPH by LC-MS/MS analysis; format: ADME, Microsome; details: read-out: Stability
[2] = Stability of the compound in human plasma assessed as remaining compound measure after 10 mins by LC-MS/MS analysis; format: ADME, cell-free
[3] = Stability of the compound in human plasma assessed as remaining compound measure after 30 mins by LC-MS/MS analysis; format: ADME, cell-free; details: read-out: Stability
[4] = Stability of the compound in human plasma assessed as remaining compound measure after 60 mins by LC-MS/MS analysis; format: ADME, cell-free; details: read-out: Stability
[5] = Stability of the compound in human plasma assessed as remaining compound measure after 120 mins by LC-MS/MS analysis; format: ADME, cell-free; details: read-out: Stability
[6] = Stability of the compound in human plasma assessed as half life by LC-MS/MS analysis; format: ADME, cell-free
[7] = Metabolic stability in human liver microsomes assessed as half life in presence of NADPH by LC-MS/MS analysis; format: ADME, Microsome
[8] = Metabolic stability in human microsomes assessed as intrinsic clearance in presence of NADPH by LC-MS/MS analysis; format: ADME, Microsome
[9] = Metabolic stability in human liver assessed as intrinsic clearance in presence of NADPH by LC-MS/MS analysis; format: ADME, tissue-based; details: read-out: CLH
[10] = Metabolic stability in human liver microsomes assessed as parent compound remaining measured at 60 min in absence of NADPH by LC-MS/MS analysis; format: ADME, Microsome; details: read-out: Stability
[11] = Half life in Sprague-Dawley rat at 1 mg/kg, iv by LC-MS/MS analysis; format: ADME, organism-based; details: in vivo
[12] = Tmax in Sprague-Dawley rat at 3 mg/kg, po by LC-MS/MS analysis; format: ADME, organism-based; details: in vivo
[13] = Cmax in Sprague-Dawley rat at 3 mg/kg, po by LC-MS/MS analysis; format: ADME, organism-based; parameters: dose 3 mg/kg, route po; details: in vivo
[14] = AUClast in Sprague-Dawley rat at 3 mg/kg, po by LC-MS/MS analysis; format: ADME, organism-based; parameters: time 0 - last, dose 3 mg/kg, route po; details: in vivo
[15] = AUClast in Sprague-Dawley rat at 1 mg/kg, iv by LC-MS/MS analysis; format: ADME, organism-based; parameters: time 0 - last, dose 1 mg/kg, route iv; details: in vivo
[16] = AUCinfinity in Sprague-Dawley rat at 1 mg/kg, iv by LC-MS/MS analysis; format: ADME, organism-based; parameters: time infinity, dose 1 mg/kg, route iv; details: in vivo
[17] = MRT in Sprague-Dawley rat at 3 mg/kg, po by LC-MS/MS analysis; format: ADME, organism-based; details: in vivo
[18] = MRT in Sprague-Dawley rat at 1 mg/kg, iv by LC-MS/MS analysis; format: ADME, organism-based; details: in vivo
[19] = Volume of distribution at steady state in Sprague-Dawley rat at 1 mg/kg, iv by LC-MS/MS analysis; format: ADME, organism-based; details: in vivo, read-out: Vdss
[20] = Oral bioavailability in Sprague-Dawley rat at 3 mg/kg by LC-MS/MS analysis; format: ADME, organism-based; details: in vivo

With `O=C(N[C@@H]1CCCNC1)c1cccc(Nc2ncc(Cl)c(NCc3cccc(F)c3)n2)c1` the remaining at 1 h [1] was 90.2%, the Stability [2] was 84% and the remaining at 0.5 h [3] was 90.1%. For the same compound, the remaining at 1 h [4] was 90.5%, the remaining at 2 h [5] was 103% and the half-life [6] was > 4.82 h. The half-life [7] was > 2.42 h, the CLint scaled [8] was < 9.6 mL/min/kg and the CLint scaled [9] was < 8.6 mL/min/kg. For the same compound, the remaining at 1 h [10] was 96%, the half-life [11] was 3.4 h and the Tmax [12] was 4 h. For the same compound, the Cmax [13] was 33.6 ng/mL, the AUC(0-t) [14] was 188 ng·h/mL and the AUC(0-t) [15] was 325 ng·h/mL. The AUC [16] was 386 ng·h/mL, the MRT [17] was 3.49 h and the MRT [18] was 3.96 h. For the same compound, the Vd [19] was 31 L/kg and the bioavailability [20] was 17.4%.
